Settings: Liquid, Vibrating tube method

CCCCCCC(=O)OCC(COC(=O)CCCCCC)(COC(=O)CCCCCC)COC(=O)CCCCCC [pentaerythritol tetraheptanoate]
Settings	mass density [kg/m3]
283.14 K, 28046 kPa	1001
283.14 K, 28067 kPa	1001
283.14 K, 28089 kPa	1001.1
283.14 K, 28108 kPa	1001.1
283.14 K, 28129 kPa	1001.2
283.14 K, 28154 kPa	1001.1
283.14 K, 28174 kPa	1001.2
283.14 K, 28195 kPa	1001.1
283.14 K, 28219 kPa	1001
283.14 K, 28239 kPa	1001.2
283.14 K, 28263 kPa	1001.3
283.14 K, 28285 kPa	1001.2
283.14 K, 28305 kPa	1001.2
283.14 K, 28326 kPa	1001.3
283.14 K, 28352 kPa	1001.1
283.14 K, 28370 kPa	1001.3
283.14 K, 28395 kPa	1001.3
283.14 K, 28416 kPa	1001.2
283.14 K, 28441 kPa	1001.3
283.14 K, 28461 kPa	1001.4
283.14 K, 28482 kPa	1001.2
283.14 K, 28503 kPa	1001.3
283.14 K, 28528 kPa	1001.3
283.14 K, 28550 kPa	1001.3
283.14 K, 28575 kPa	1001.4
283.14 K, 28596 kPa	1001.4
283.14 K, 28617 kPa	1001.3
283.14 K, 28642 kPa	1001.4
283.14 K, 28664 kPa	1001.4
283.14 K, 28685 kPa	1001.4
283.14 K, 28707 kPa	1001.4
283.14 K, 28732 kPa	1001.3
283.14 K, 28753 kPa	1001.4
283.14 K, 28775 kPa	1001.4
283.14 K, 28801 kPa	1001.5
283.14 K, 28822 kPa	1001.5
283.14 K, 28848 kPa	1001.4
283.14 K, 28870 kPa	1001.4
283.14 K, 28891 kPa	1001.4
283.14 K, 28912 kPa	1001.6
283.14 K, 28939 kPa	1001.6
283.14 K, 28961 kPa	1001.6
283.14 K, 28983 kPa	1001.6
283.14 K, 29009 kPa	1001.5
283.14 K, 29031 kPa	1001.6
283.14 K, 29058 kPa	1001.4
283.14 K, 29080 kPa	1001.6
283.14 K, 29101 kPa	1001.6
283.14 K, 29123 kPa	1001.6
283.14 K, 29150 kPa	1001.7
283.14 K, 29172 kPa	1001.6
283.14 K, 29195 kPa	1001.6
283.14 K, 29221 kPa	1001.7
283.14 K, 29244 kPa	1001.7
283.14 K, 29267 kPa	1001.7
283.14 K, 29290 kPa	1001.7
283.14 K, 29317 kPa	1001.7
283.14 K, 29339 kPa	1001.7
283.14 K, 29361 kPa	1001.8
283.14 K, 29388 kPa	1001.7
283.14 K, 29411 kPa	1001.7
283.14 K, 29438 kPa	1001.9
283.14 K, 29460 kPa	1001.9
283.14 K, 29483 kPa	1001.8
283.14 K, 29506 kPa	1001.8
283.14 K, 29534 kPa	1001.9
283.14 K, 29557 kPa	1001.9
283.14 K, 29579 kPa	1001.8
283.14 K, 29608 kPa	1001.8
283.14 K, 29631 kPa	1001.8
283.14 K, 29654 kPa	1001.9
283.14 K, 29681 kPa	1001.9
283.14 K, 29704 kPa	1002
283.14 K, 29727 kPa	1001.8
283.14 K, 29755 kPa	1001.9
283.14 K, 29778 kPa	1001.9
283.14 K, 29801 kPa	1002
283.14 K, 29829 kPa	1001.9
283.14 K, 29852 kPa	1002
283.14 K, 29876 kPa	1002
283.14 K, 29904 kPa	1002
283.14 K, 29928 kPa	1002
283.14 K, 29951 kPa	1002
283.14 K, 29975 kPa	1002
283.14 K, 30004 kPa	1002
283.14 K, 30027 kPa	1002
283.14 K, 30051 kPa	1002
283.14 K, 30079 kPa	1002
283.14 K, 30102 kPa	1002.1
283.14 K, 30131 kPa	1002.2
283.14 K, 30156 kPa	1002.2
283.14 K, 30180 kPa	1002.1
283.14 K, 30206 kPa	1002.2
283.14 K, 30254 kPa	1002.2
283.14 K, 30284 kPa	1002.1
283.14 K, 30307 kPa	1002.2
283.14 K, 30336 kPa	1002.2
283.14 K, 30361 kPa	1002.3
283.14 K, 30385 kPa	1002.3
283.14 K, 30410 kPa	1002.2
283.14 K, 30440 kPa	1002.3
283.14 K, 30465 kPa	1002.3
283.14 K, 30490 kPa	1002.3
283.14 K, 30520 kPa	1002.3
283.14 K, 30546 kPa	1002.3
283.14 K, 30571 kPa	1002.2
283.14 K, 30595 kPa	1002.3
283.14 K, 30620 kPa	1002.4
283.14 K, 30650 kPa	1002.3
283.14 K, 30675 kPa	1002.4
283.14 K, 30700 kPa	1002.4
283.14 K, 30730 kPa	1002.4
283.14 K, 30755 kPa	1002.4
283.14 K, 30785 kPa	1002.4
283.14 K, 30810 kPa	1002.4
283.14 K, 30836 kPa	1002.5
283.14 K, 30861 kPa	1002.5
283.14 K, 30892 kPa	1002.6
283.14 K, 30917 kPa	1002.5
283.14 K, 30943 kPa	1002.5
283.14 K, 30974 kPa	1002.6
283.14 K, 30999 kPa	1002.5
283.14 K, 31030 kPa	1002.6
283.14 K, 31056 kPa	1002.5
283.14 K, 31082 kPa	1002.6
283.14 K, 31108 kPa	1002.7
283.14 K, 31138 kPa	1002.5
283.14 K, 31165 kPa	1002.5
283.14 K, 31191 kPa	1002.7
283.14 K, 31223 kPa	1002.6
283.14 K, 31249 kPa	1002.7
283.14 K, 31275 kPa	1002.7
283.14 K, 31306 kPa	1002.7
283.14 K, 31332 kPa	1002.7
283.14 K, 31358 kPa	1002.7
283.14 K, 31390 kPa	1002.7
283.14 K, 31416 kPa	1002.8
283.14 K, 31443 kPa	1002.8
283.14 K, 31474 kPa	1002.7
283.14 K, 31501 kPa	1002.8
283.14 K, 31533 kPa	1002.8
283.14 K, 31560 kPa	1002.7
283.14 K, 31587 kPa	1002.8
283.14 K, 31614 kPa	1002.8
283.14 K, 31646 kPa	1002.9
283.14 K, 31672 kPa	1002.9
283.14 K, 31699 kPa	1003
283.14 K, 31732 kPa	1002.8
283.14 K, 31759 kPa	1002.8
283.14 K, 31791 kPa	1002.9
283.14 K, 31818 kPa	1002.9
283.14 K, 31845 kPa	1003
283.14 K, 31878 kPa	1002.9
283.14 K, 31905 kPa	1003.1
283.14 K, 31932 kPa	1002.9
283.14 K, 31960 kPa	1003
283.14 K, 31994 kPa	1003
283.14 K, 32021 kPa	1003
283.14 K, 32054 kPa	1003.1
283.14 K, 32082 kPa	1003
283.14 K, 32109 kPa	1003.2
283.14 K, 32143 kPa	1003.1
283.14 K, 32170 kPa	1003.1
283.14 K, 32198 kPa	1003.1
283.14 K, 32231 kPa	1003.2
283.14 K, 32260 kPa	1003.1
283.14 K, 32288 kPa	1003.2
283.14 K, 32321 kPa	1003.2
283.14 K, 32350 kPa	1003.3
283.14 K, 32378 kPa	1003.2
283.14 K, 32406 kPa	1003.3
283.14 K, 32441 kPa	1003.2
283.14 K, 32469 kPa	1003.3
283.14 K, 32503 kPa	1003.3
283.14 K, 32531 kPa	1003.3
283.14 K, 32560 kPa	1003.4
283.14 K, 32595 kPa	1003.3
283.14 K, 32624 kPa	1003.5
283.14 K, 32653 kPa	1003.3
283.14 K, 32687 kPa	1003.3
283.14 K, 32718 kPa	1003.3
283.14 K, 32747 kPa	1003.4
283.14 K, 32776 kPa	1003.4
283.14 K, 32810 kPa	1003.5
283.14 K, 32840 kPa	1003.5
283.14 K, 32869 kPa	1003.5
283.14 K, 32898 kPa	1003.6
283.14 K, 32934 kPa	1003.4
283.14 K, 32963 kPa	1003.5
283.14 K, 32992 kPa	1003.5
283.14 K, 33028 kPa	1003.6
283.14 K, 33057 kPa	1003.6
283.14 K, 33093 kPa	1003.5
283.14 K, 33125 kPa	1003.6
283.14 K, 33155 kPa	1003.7
283.14 K, 33185 kPa	1003.6
283.14 K, 33215 kPa	1003.7
283.14 K, 33251 kPa	1003.7
283.14 K, 33281 kPa	1003.7
283.14 K, 33311 kPa	1003.6
283.14 K, 33347 kPa	1003.7
283.14 K, 33377 kPa	1003.6
283.14 K, 33414 kPa	1003.7
283.14 K, 33444 kPa	1003.8
283.14 K, 33474 kPa	1003.8
283.14 K, 33511 kPa	1003.8
283.14 K, 33542 kPa	1003.9
283.14 K, 33572 kPa	1003.8
283.14 K, 33604 kPa	1003.8
283.14 K, 33641 kPa	1003.9
283.14 K, 33671 kPa	1003.9
283.14 K, 33708 kPa	1003.8
283.14 K, 33739 kPa	1003.8
283.14 K, 33770 kPa	1003.8
283.14 K, 33808 kPa	1004
283.14 K, 33839 kPa	1004
283.14 K, 33870 kPa	1003.9
283.14 K, 33907 kPa	1004
283.14 K, 33938 kPa	1003.9
283.14 K, 34406 kPa	1004.3
283.14 K, 34575 kPa	1004.3
283.14 K, 34576 kPa	1004.3
283.15 K, 100.4 kPa	985.9

Reference: the NIST ThermoML archive (doi:10.1021/je060271a)
